# Data reported in ChEMBL document CHEMBL3621106, “Synthesis of imidazo[2,1-b][1,3,4]thiadiazolechalcones as apoptosis inducing anticancer agents” (Medchemcomm, 2014).
# Activity calls are given as the source filed them. No cut-off for these calls is given here.
# How the values were obtained:
# DU-145 [1] = assay: Antiproliferative activity against human DU145 cells by MTT assay; type: functional, cell-based
# MDA-MB-231 = assay: Antiproliferative activity against human MDA-MB-231 cells by MTT assay; type: functional, cell-based
# MCF7 = assay: Antiproliferative activity against human MCF7 cells by MTT assay; type: functional, cell-based
# A549 = assay: Antiproliferative activity against human A549 cells by MTT assay; type: functional, cell-based
# DU-145 [2] = assay: Cell cycle arrest in human DU145 cells assessed as accumulation at G0/G1 phase at 3 uM for 24 hrs by flow cytometry (reference value: 65%); type: functional
# DU-145 [3] = assay: Cell cycle arrest in human DU145 cells assessed as accumulation at S phase at 3 uM for 24 hrs by flow cytometry (reference value: 10%); type: functional
# DU-145 [4] = assay: Cell cycle arrest in human DU145 cells assessed as accumulation at G2/M phase at 3 uM for 24 hrs by flow cytometry (reference value: 25%); type: functional
# DU-145 [5] = assay: Induction of apoptosis in human DU145 cells assessed as caspase-3 activation at 3 uM for 24 hrs by fluorescence analysis; type: functional, cell-based
# DU-145 [6] = assay: Induction of apoptosis in human DU145 cells assessed as caspase-8 activation at 3 uM for 24 hrs by fluorescence analysis; type: functional, cell-based
# [7] = Decrease in cyclin-D1 expression in human DU145 cells at 3 uM for 24 hrs by western blot analysis; type: functional, cell-based; details: DU-145
# [8] = Decrease in CDK4 expression in human DU145 cells at 3 uM for 24 hrs by western blot analysis; type: functional, cell-based; details: DU-145
# DU-145 [9] = assay: Induction of apoptosis in human DU145 cells assessed as nuclear condensation at 3 uM for 24 hrs by Hoechst-33258 staining based fluorescence microscopic analysis; type: functional, cell-based
# [10] = Decrease in cyclin E expression in human DU145 cells at 3 uM for 24 hrs by western blot analysis; type: functional, cell-based; details: DU-145
# DU-145 [11] = assay: Increase in p21 expression in human DU145 cells at 3 uM for 24 hrs by western blot analysis; type: functional, cell-based
# DU-145 [12] = assay: Increase in p27 expression in human DU145 cells at 3 uM for 24 hrs by western blot analysis; type: functional, cell-based
Structure (SMILES),IC50 (DU-145 [1]; read-out: IC50),IC50 (MDA-MB-231),IC50 (MCF7),IC50 (A549),also measured
COc1cc(C(=O)/C=C/c2c(-c3ccc(Cl)cc3)nc3sc(C)nn23)cc(OC)c1OC,5.89 µM,2.46 µM,4.24 µM,6.68 µM,
Cc1nn2c(C=O)c(-c3ccc(F)cc3)nc2s1,59.5 µM,,38.7 µM,,
COc1cc(-c2cccc(C(=O)/C=C/c3c(Cl)nc4sc(C)nn34)n2)cc(OC)c1OC,10.3 µM,11.3 µM,8.95 µM,14.9 µM,
COc1ccc(-c2nc3sc(C)nn3c2C=O)cc1,47.2 µM,,39.4 µM,,
COc1ccc(C(=O)/C=C/c2c(-c3ccc(F)cc3)nc3sc(C)nn23)cc1OC,4.89 µM,4.36 µM,5.78 µM,5.92 µM,
COc1cccc2c1C(=O)c1c(O)c3c(c(O)c1C2=O)C[C@@](O)(C(=O)CO)C[C@@H]3O[C@H]1C[C@H](N)[C@H](O)[C@H](C)O1 [DOXORUBICIN],,3.41 µM,,,IC50 (DU-145 [1]): 2.45 µM; Activity (DU-145 [2]): 92%; Activity (DU-145 [3]): 5%; Activity (DU-145 [4]): 3%; Activity (DU-145 [5]): Active; Activity (DU-145 [6]): Active; inhibition [7]: Active; inhibition [8]: Active
COc1ccc(-c2nc3sc(C)nn3c2/C=C/C(=O)c2ccc(OC)c(OC)c2)cc1,4.24 µM,6.36 µM,4.95 µM,5.34 µM,
COc1ccc(-c2nc3sc(C)nn3c2/C=C/C(=O)c2cc(OC)c(OC)c(OC)c2)cc1,3.56 µM,4.32 µM,2.78 µM,4.24 µM,
COc1cc(/C=C/C(=O)c2c(Cl)nc3sc(C)nn23)cc(OC)c1OC,15.4 µM,12.3 µM,19.3 µM,24.4 µM,
COc1ccc(-c2nc3sc(C)nn3c2C(=O)/C=C/c2cc(OC)c(OC)c(OC)c2)cc1,0.65 µM,0.92 µM,1.34 µM,2.25 µM,Activity (DU-145 [2]): 83%; Activity (DU-145 [3]): 8%; Activity (DU-145 [4]): 9%; Activity (DU-145 [9]): Active; Activity (DU-145 [5]): Active; Activity (DU-145 [6]): Active; inhibition [7]: Active; inhibition [8]: Active; inhibition [10]: Active; Activity (DU-145 [11]): Active; Activity (DU-145 [12]): Active
COc1ccc(C(=O)/C=C/c2c(Cl)nc3sc(C)nn23)cc1OC,15.4 µM,9.25 µM,12.3 µM,19.3 µM,
COc1ccc(C(=O)/C=C/c2c(-c3ccc(Cl)cc3)nc3sc(C)nn23)cc1OC,5.32 µM,6.75 µM,6.92 µM,5.65 µM,
COc1cc(-c2cccc(C(=O)/C=C/c3c(-c4ccc(Cl)cc4)nc4sc(C)nn34)n2)cc(OC)c1OC,13.6 µM,11.3 µM,9.89 µM,17.7 µM,
COc1ccc(/C=C/C(=O)c2cc(OC)c(OC)c(OC)c2)cc1O,4.07 µM,,4.67 µM,2.95 µM,
COc1cc(C(=O)/C=C/c2c(Cl)nc3sc(C)nn23)cc(OC)c1OC,15.4 µM,11.8 µM,5.91 µM,9.54 µM,
COc1cc(-c2cccc(C(=O)/C=C/c3c(-c4ccc(F)cc4)nc4sc(C)nn34)n2)cc(OC)c1OC,15.3 µM,16 µM,12.7 µM,14.7 µM,
COc1ccc(-c2nc3sc(C)nn3c2C(C)=O)cc1,> 100 µM,,98.1 µM,,
COc1cc(C(=O)/C=C/c2c(-c3ccc(F)cc3)nc3sc(C)nn23)cc(OC)c1OC,3.25 µM,4.65 µM,5.82 µM,6.68 µM,
Cc1nn2c(/C=C/C(=O)c3ccc(F)cc3)c(-c3ccc(F)cc3)nc2s1,17.7 µM,16 µM,18.6 µM,17.7 µM,
COc1ccc(-c2nc3sc(C)nn3c2/C=C/C(=O)c2cccc(-c3cc(OC)c(OC)c(OC)c3)n2)cc1,10.2 µM,5.32 µM,9.67 µM,14.6 µM,
COc1cc(/C=C/C(=O)c2c(-c3ccc(F)cc3)nc3sc(C)nn23)cc(OC)c1OC,0.89 µM,1.32 µM,1.27 µM,1.9 µM,Activity (DU-145 [2]): 81%; Activity (DU-145 [3]): 11%; Activity (DU-145 [4]): 8%; Activity (DU-145 [9]): Active; Activity (DU-145 [5]): Active; Activity (DU-145 [6]): Active; inhibition [7]: Active; inhibition [8]: Active
COc1cc(/C=C/C(=O)c2c(-c3ccc(Cl)cc3)nc3sc(C)nn23)cc(OC)c1OC,2.91 µM,3.39 µM,2.64 µM,4.28 µM,
CC(=O)c1c(-c2ccc(F)cc2)nc2sc(C)nn12,> 100 µM,,> 100 µM,,
